In patent publication US9840478B2 (MERCK SHARP & DOHME CORP., priority 2013, dated 2017):
Read-outs that look alike come from different tables or passages of the source.

Test system: HIV-1 (H9IIIB strain)
Assay: Cell-based HIV infection assay using a reporter (Cell-Based), MT4-GFP cells
Conditions: 50% normal human serum, mean of at least two independent experiments, read-out: Cell-based IP
Method in brief: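 IC50 from 4-parameter dose-response of % viral growth inhibition, using the 48 h/24 h infected-cell ratio scaled between DMSO and a protease/integrase/NNRTI triple-drug control. Assay used MT4 cells with HIV-LTR-GFP reporter, pre-infected 24 h with HIV-1 H9IIIB, in 50% normal human serum.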

[1] = Human immunodeficiency virus 1, MT4-GFP cells infected with HIV-1 H9IIIB

Structure (SMILES)	IC50 [1]	IC50 (MT4-GFP cells infected with HIV-1 H9IIIB)
C[C@@H]1CNC[C@H](CCc2c(F)cccc2NC(=O)[C@@H](N)[C@@H](c2cc(F)cc(F)c2)C2CCOCC2)N1S(=O)(=O)c1ccccc1 [Example 284, (βR)-3,5-difluoro-N-(3-fluoro-2-{2-[(2S,6R)-6-methyl-1-(phenylsulfonyl)piperazin-2-yl]ethyl}phenyl)-β-(tetrahydro-2H-pyran-4-yl)-L-phenylalaninamide]	40 nM	
COc1ccc(S(=O)(=O)N2[C@@H](CCc3c(F)cccc3NC(=O)[C@@H](N)[C@@H](c3cccc(Cl)c3)C(C)C)CNC[C@@H]2C)cc1 [Example 249, (βR)-3-chloro-N-[3-fluoro-2-(2-{(2S,6S)-1-[(4-methoxyphenyl)sulfonyl]-6-methylpiperazin-2-yl}ethyl)phenyl]-β-(1-methylethyl)-L-phenylalaninamide]	53 nM	
CC(=O)Nc1nc(S(=O)(=O)N2CCNC[C@@H]2CCc2c(F)cncc2NC(=O)C[C@@H](c2ccc(F)cc2)c2cc(F)cc(F)c2)c(C)s1 [Example 309, (3S)-N-(4-{2-[(2S)-1-{[2-(acetylamino)-5-methyl-1,3-thiazol-4-yl]sulfonyl}piperazin-2-yl]ethyl}-5-fluoropyridin-3-yl)-3-(3,5-difluorophenyl)-3-(4-fluorophenyl)propanmide]	140 nM	
COC(=O)N[C@H](C(=O)Nc1cncc(F)c1CC[C@H]1CNCCN1S(=O)(=O)N1CCCC1)[C@@H](c1ccc(F)cc1)c1cc(F)cc(F)c1 [Example 84, (βS)-3,5-difluoro-β-(4-fluorophenyl)-N-(5-fluoro-4-{2-[(2S)-1-(pyrroldin-1-ylsulfonyl)piperazin-2-yl]ethyl}pyridin-3-yl)-Nα-(methoxycarbonyl)-L-phenylalaninamide]	8.4 nM	
COC(=O)N[C@H](C(=O)Nc1cccc(F)c1CC[C@H]1CNCC2(CC2)CN1S(=O)(=O)c1ccccc1)[C@@H](c1ccc(Cl)cc1)c1ccc(OC)nc1 [Example 19, Methyl ((1S,2S)-1-(4-chlorophenyl)-3-((3-fluoro-2-(2-((S)-5-phenylsulfonyl)-5,8-diazaspiro[2.6]nonan-6-yl)ethyl)phenylamino)-1-(6-methoxypyridin-3-yl)-3-oxopropan-2-yl)carbamate 2,2,2-trifluoroacetate]	16 nM	
C[C@H]1CNC[C@H](CCc2c(F)cccc2NC(=O)[C@@H](N)[C@@H](c2ccc(Cl)cc2)c2cccc(F)c2)N1S(C)(=O)=O [Example 108, (βS)-4-chloro-N-(3-fluoro-2-{2-[(2S,6S)-6-methyl-1-(methylsulfonyl)piperazin-2-yl]ethyl}phenyl)-β-(3-fluorophenyl)-L-phenylalaninamide]	32 nM	
COC(=O)N[C@H](C(=O)Nc1cccc(F)c1CC[C@H]1CNC[C@H](C)N1S(=O)(=O)c1ccc(OC(F)(F)F)cc1)[C@@H](c1ccc(Cl)cc1)C(C)C [Example 142, (βR)-4-chloro-N-(3-fluoro-2-{2-[(2S,6S)-6-methyl-1-{[4-(trifluoromethoxy)phenyl]sulfonyl}piperazin-2-yl]ethyl}phenyl)-Nα-(methoxycarbonyl)-β-(1-methylethyl)-L-phenylalaninamide]	84 nM	
COC(=O)N[C@H](C(=O)Nc1cccc(F)c1CC[C@H]1CNC[C@@H](C)N1S(=O)(=O)c1ccccc1)C(c1cccc(F)c1)c1cccc(F)c1 [Example 134, 3-fluoro-N-(3-fluoro-2-{2-[(2S,6R)-6-methyl-1-(phenylsulfonyl)piperazin-2-yl]ethyl}phenyl)-β-(3-fluorophenyl)-Nα-(methoxycarbonyl)-L-phenylalaninamide]	63 nM	
N[C@H](C(=O)Nc1cccc(F)c1CC[C@H]1CNCCN1S(=O)(=O)c1ccccc1)[C@@H](c1ccc(Cl)cc1)c1cccc(OC(F)(F)F)c1 [Example 42, (βS)-4-chloro-N-(3-fluoro-2-{2-[(2S)-1-(phenylsulfonyl)piperazin-2-yl]ethyl}phenyl)-β-[3-(trifluoromethoxy)phenyl]-L-phenylalaninamide]	60 nM	
COC(=O)N[C@H](C(=O)Nc1cccc(F)c1CC[C@H]1CNC[C@H](C)N1S(C)(=O)=O)[C@@H](c1ccc(F)cc1)c1cc(F)cc(F)c1 [Example 259, (βS)-β-(3,5-difluorophenyl)-4-fluoro-N-(3-fluoro-2-{2-[(2S,6S)-6-methyl-1-(methylsulfonyl)piperazin-2-yl]ethyl}phenyl)-Nα-(methoxycarbonyl)-L-phenylalaninamide]		18 nM
COC(=O)N[C@H](C(=O)Nc1cncc(F)c1CC[C@H]1CNCCN1S(=O)(=O)c1ccccc1)[C@@H](c1ccc(Cl)cc1)c1cccc(OC(F)(F)F)c1 [Example 56, (βS)-4-chloro-N-(5-fluoro-4-{2-[(2S)-1-(phenylsulfonyl)piperazin-2-yl]ethyl}pyridin-3-yl)-Nα-(methoxycarbonyl)-β-[3-(trifluoromethoxy)phenyl]-L-phenylalaninamide]	13 nM	
COC(=O)N[C@H](C(=O)N[C@@H]1CCC[C@H]1CC[C@H]1CNCCN1S(=O)(=O)c1ccccc1)C(c1ccc(F)cc1)c1ccc(F)cc1 [Example 351, Methyl ((S)-1,1-bis(4-fluorophenyl)-3-oxo-3-(((1R,2S)-2-(2-((S)-1-(phenylsulfonyl)piperazin-2-yl)ethyl)cyclopentyl)amino)propan-2-yl)carbamate]	360 nM	
C[C@H]1CNC[C@H](CCc2c(F)cccc2NC(=O)[C@@H](N)[C@@H](c2ccc(Cl)cc2)C2CCOCC2)N1S(=O)(=O)C1CC1 [Example 141, (βR)-4-chloro-N-(2-{2-[(2S,6S)-1-(cyclopropylsulfonyl)-6-methylpiperazin-2-yl]ethyl}-3-fluorophenyl)-β-(tetrahydro-2H-pyran-4-yl)-L-phenylalaninamide]	77 nM	
CC(C)[C@H](c1ccc(Cl)cc1)[C@H](N)C(=O)Nc1cccc(F)c1CC[C@H]1CNC[C@H](C)N1S(=O)(=O)C1CC1 [Example 127, (βR)-4-chloro-N-(2-{2-[(2S,6S)-1-(cyclopropylsulfonyl)-6-methylpiperazin-2-yl]ethyl}-3-fluorophenyl)-β-(1-methylethyl)-L-phenylalaninamide]	300 nM	
CCOC(=O)c1nc(-c2ccc(S(=O)(=O)N3CCNC[C@@H]3CCc3c(F)cncc3NC(=O)C[C@@H](c3ccc(F)cc3)c3cc(F)cc(F)c3)s2)no1 [Example 312, ethyl 3-[5-({(2S)-2-[2-(3-{[(3S)-3-(3,5-difluorophenyl)-3-(4-fluorophenyl)propanoyl]amino}-5-fluoropyridin-4-yl)ethyl]piperazin-1-yl}sulfonyl)thiophen-2-yl]-1,2,4-oxadiazole-5-carboxylate]	140 nM	
C[C@@H]1CNC[C@H](CCc2c(F)cccc2NC(=O)[C@@H](N)C(c2cccc(F)c2)c2cccc(F)c2)N1S(=O)(=O)C1CC1 [Example 181, N-(2-{2-[(2S,6R)-1-(cyclopropylsulfonyl)-6-methylpiperazin-2-yl]ethyl}-3-fluorophenyl)-3-fluoro-β-(3-fluorophenyl)-L-phenylalaninamide]	170 nM	
CC(C)NS(=O)(=O)N1CCNC[C@@H]1CCc1c(F)cncc1NC(=O)C[C@@H](c1ccc(F)cc1)c1cc(F)cc(F)c1 [Example 324, (3S)-3-(3,5-difluorophenyl)-N-[5-fluoro-4-(2-{(2S)-1-[(1-methylethyl)sulfamoyl]piperazin-2-yl}ethyl)pyridin-3-yl]-3-(4-fluorophenyl)propanamide]	40 nM	
COC(=O)N[C@H](C(=O)Nc1cncc(F)c1CC[C@H]1CNCCN1S(=O)(=O)c1ccccc1)[C@@H](c1ccc(Cl)cc1)c1cccc(F)c1 [Example 53, (βS)-4-chloro-β-(3-fluorophenyl)-N-(5-fluoro-4-{2-[(2S)-1-(phenylsulfonyl)piperazin-2-yl]ethyl}pyridin-3-yl)-Nα-(methoxycarbonyl)-L-phenylalaninamide]	6.5 nM	
C[C@H]1CNC[C@H](CCc2c(F)cncc2NC(=O)[C@@H](N)[C@@H](c2ccc(Cl)cc2)c2cccc(F)c2)N1S(=O)(=O)C1CC1 [Example 166, (βS)-4-chloro-N-(4-{2-[(2S,6S)-1-(cyclopropylsulfonyl)-6-methylpiperazin-2-yl]ethyl}-5-fluoropyridin-3-yl)-β-(3-fluorophenyl)-L-phenylalaninamide]	29 nM	
COC(=O)N[C@H](C(=O)Nc1cccc(F)c1CC[C@H]1CNC[C@H](C)N1S(=O)(=O)C1CC1)[C@@H](c1ccc(Cl)cc1)c1cccc(F)c1 [Example 168, (βS)-4-chloro-N-(2-{2-[(2S,6S)-1-(cyclopropylsulfonyl)-6-methylpiperazin-2-yl]ethyl}-3-fluorophenyl)-β-(3-fluorophenyl)-Nα-(methoxycarbonyl)-L-phenylalaninamide]	19 nM	
COC(=O)N[C@H](C(=O)Nc1cccc(F)c1CC[C@H]1CNC[C@@H](C)N1S(C)(=O)=O)[C@@H](c1ccc(F)cc1)C1CCOCC1 [Example 146, (βR)-4-fluoro-N-(3-fluoro-2-{2-[(2S,6R)-6-methyl-1-(methylsulfonyl)piperazin-2-yl]ethyl}phenyl)-Nα-(methoxycarbonyl)-β-(tetrahydro-2H-pyran-4-yl)-L-phenylalaninamide]	72 nM	
O=C(CC1(c2ccc(Cl)cc2)CCOCC1)Nc1cncc(F)c1CC[C@H]1CNCCN1S(=O)(=O)C1CC1 [Example 62, 2-[4-(4-chlorophenyl)tetrahydro-2H-pyran-4-yl]-N-(4-{2-[(2S)-1-(cyclopropylsulfonyl)piperazin-2-yl]ethyl}-5-fluoropyridin-3-yl)acetamide]	520 nM	
O=C(C[C@@H](c1ccc(F)cc1)c1cc(F)cc(F)c1)Nc1cncc(F)c1CC[C@H]1CNCCN1S(=O)(=O)c1ccccn1 [Example 304, (3S)-3-(3,5-difluorophenyl)-3-(4-fluorophenyl)-N-(5-fluoro-4-{2-[(2S)-1-(pyridin-2-ylsulfonyl)piperazin-2-yl]ethyl}pyridin-3-yl)propanamide]	3.6 nM	
